According to patent publication US9603841B2, “Vector delivery-based microbicides” (Rush University Medical Center, priority 2005, dated 2017):
In brackets after ≈: the same amount, converted by molar mass. Read-outs that look alike come from different tables or passages of the source.

Legend:
[1] = 0.5 mM in 0.1 M PBS, pH 7.4, 37° C.; cited from earlier work
spermatozoa [2] = details: cited from earlier work
human spermatozoa [3] = experiment: Inhibition of fractionated NO23-SAMMA-induced acrosomal loss by protein kinase G inhibitor; type: cell-based; details: Ca2+-independent (absence of added extracellular Ca2+)
Description: NO23-SAMMA, whether fractionated or not, appears, at least in part, to act through release of nitric oxide. Fractionated NO23-SAMMA-induced acrosomal loss in the absence of added extracellular Ca^2+ is inhibited by the selective protein kinase G inhibitor KT5823 (see FIG. 6). […] Acrosomal loss in human spermatozoa in response to NO donors is inhibited by protein kinase G inhibitors ([…] et al., “Signaling pathway of nitric oxide-induced acrosome reaction in human spermatozoa”, Biol. Reprod., 64: 1708-12 (2001)). […] Inhibition of acrosomal loss by the selective protein kinase G inhibitor supports this contention.

spermatozoa [4] = details: cited from earlier work; remark: listed apart in the source
human spermatozoa [5] = experiment: Acrosomal loss (AL) in human spermatozoa; type: cell-based; details: for EC50: Homo sapiens, Spermatozoa
Description: Measurement of AL was carried out as described previously. […] All reactions were carried out in either the presence or absence of added extracellular Ca^2+ (1.28 mM). […] Data are expressed as the average % maximal response, based on the AL induced by a maximally stimulating concentration of the calcium ionophore A23187.
Unless otherwise noted, acrosomal loss data were obtained from assays that included Ca^2+ in the extracellular medium. In contrast, acrosomal loss induced by NO donors occurs independent of Ca^2+. […] Although not wishing to be limited by theory, it appears that acrosomal loss in the presence of added extracellular Ca^2+ may be due to either or both moieties, whereas acrosomal loss in the absence of Ca^2+ is due entirely to the NO donor moiety.

spermatozoa [6] = experiment: Sperm immobilization (modified Sander and Cramer), motile spermatozoa; type: cell-based; details: 10 mM
Description: Data are presented as the percentage of motile spermatozoa at each concentration of test agent. When possible, test outcomes were also reported as the concentration of agent in the semen sample that reduces motility by 50%.

HIV-1 Bee = experiment: HIV-1 infected primary lymphocytes, agent added after inoculation (p24, day 7); type: cell-based; details: agent added after 2 h inoculation and washing, p24 on day 7
Description: HIV is sensitive to inhibition by the NO donor used to synthesize NO-SAMMA (nitrooxypropanol), although substantially less than to NO-SAMMA. […] Viral replication was measured on day 7 of incubation (p24 levels).

hyaluronidase = experiment: Hyaluronidase activity inhibition; type: biochemical; details: 50 μM
Description: Hyaluronidase activity was measured as described in Example 8 of U.S. Pat. No. 5,932,619. […] In contrast, the NO donor moiety of NO23-SAMMA, nitrooxypropanol, is nearly without effect.

[7] = system: C. trachomatis (serotype E/UW-5/CX); experiment: Infection of HeLa cells by C. trachomatis; type: cell-based, Chlamydia trachomatis; details: read-out: IC50 against C. trachomatis
Description: Effect of NO-SAMMA against C. trachomatis. […] This was followed by inoculation of the monolayer with chlamydial elementary bodies. One hour after inoculation, free microbes and/or microbicide were removed by washing, and the HeLa cell cultures were incubated for an additional 48 hours at 37° C. Chlamydia-induced inclusions were measured by immunofluorescence, after reacting cultures with Kallsted chlamydia culture confirmation fluorescein-conjugated monoclonal antibody.

[8] = system: vaginal/cervical epithelial and other cells; details: cited from earlier work

## CC/C(=C\C(=N/O)C(N)=O)C(C)[N+](=O)[O-] (racemic) [NOR-3, (±)-E-4-ethyl-2-[(E)-hydroxyimino]-5 nitro-3-hexenamide]
[1]
  half-life: about 30 minutes

## NCCOB(c1ccccc1)c1ccccc1 [2-APB]
Spermatozoa [2]
  effect on SAMMA-induced acrosomal loss: not inhibited

## CCCCCCOC(=O)[C@]1(O)C[C@@H]2O[C@@]1(C)n1c3ccccc3c3c4c(c5c6ccccc6n2c5c31)C(=O)NC4 [KT5720]
Spermatozoa [2]
  effect on SAMMA-induced acrosomal loss: not inhibited

## COC(=O)[C@@]1(OC)C[C@H]2O[C@]1(C)n1c3ccccc3c3c4c(c5c6ccccc6n2c5c31)C(=O)N(C)C4 [KT5823]
Human spermatozoa [3]
  IC50: 700 nM
Spermatozoa [2]; 2 μM
  inhibition of SAMMA-induced acrosomal loss: > 95%
Spermatozoa [4]; 2 μM
  effect on NO donor-induced acrosomal loss: not inhibited

## O=[N+]([O-])OCCCO [Nitrooxypropanol, 3-nitrooxy-1-propanol]
Human spermatozoa [5]; Ca2+-independent, read-out: ED50 acrosomal loss
  EC50: 120 nM
Human spermatozoa [5]; read-out: ED50 as a stimulus of acrosomal loss
  EC50: 120 nM
Spermatozoa [6]
  % Motile Spermatozoa av ± SEM (n = 4): 66 ± 0.5 at 10 mM %
HIV-1 Bee; Human immunodeficiency virus 1, Lymphocyte
  IC50: 2540 µg/mL (≈ 21 mM)
HIV-1 Bee
  concentration giving 80% reduction (printed in the 3-Log reduction column): 1017 (80% reduction) μg/mL
hyaluronidase
  Inhibition ± SEM (N = 4): 8 ± 1.8% at 50 μM

## O=c1onc2cnc3ccccc3n12 [ODQ]
Spermatozoa [2]; 0.1 μM
  inhibition of SAMMA-induced acrosomal loss: ~50%

## O=c1c2nc(Br)n([C@@H]3O[C@@H]4CO[P@@](O)(=S)O[C@H]4[C@H]3O)c2nc2[nH]c(-c3ccccc3)cn12 [Rp-8-Br-PET-cGMPS]
Spermatozoa [4]; 0.35 μM
  effect on NO donor-induced acrosomal loss: not inhibited

## nitroprusside
Human spermatozoa [5]; 22 μM
  % maximal AL: 74%
[7]
  IC50: 23000 nM

## nonoxynol-9
[8]
  lowest concentration that can injure cells: about 0.0005%
